Tests used:
[1] = biological target: Metallo-beta-lactamase type 2 (Klebsiella pneumoniae) (UniProt C7C422); assay: Inhibition of His-tagged Klebsiella pneumoniae NDM-1 expressed in Escherichia coli BL21-AI cells at 500 uM using imipinem as substrate
[2] = biological target: T1, Metallo-beta-lactamase type 2 (Klebsiella pneumoniae, UniProt C7C422); assay: Binding affinity to His-tagged Klebsiella pneumoniae NDM-1 expressed in Escherichia coli BL21-AI cells by surface plasmon resonance assay
[3] = biological target: T1, Metallo-beta-lactamase type 2; assay: Inhibition of His-tagged Klebsiella pneumoniae NDM-1 expressed in Escherichia coli BL21-AI cells using imipinem as substrate
[4] = biological target: Metallo-beta-lactamase type 2 (Klebsiella pneumoniae) (UniProt C7C422); assay: Ratio of IC50 for inhibition of His-tagged Klebsiella pneumoniae NDM-1 expressed in Escherichia coli BL21-AI cells using imipinem as substrate to Kd for Binding affinity to His-tagged Klebsiella pneumoniae NDM-1 expressed in Escherichia coli BL21-AI cells by surface plasmon resonance assay
[5] = biological target: T1, Metallo-beta-lactamase type 2; assay: Competitive inhibition of His-tagged Klebsiella pneumoniae NDM-1 expressed in Escherichia coli BL21-AI cells using imipinem as substrate

T1 sequence (C7C422 whole entry): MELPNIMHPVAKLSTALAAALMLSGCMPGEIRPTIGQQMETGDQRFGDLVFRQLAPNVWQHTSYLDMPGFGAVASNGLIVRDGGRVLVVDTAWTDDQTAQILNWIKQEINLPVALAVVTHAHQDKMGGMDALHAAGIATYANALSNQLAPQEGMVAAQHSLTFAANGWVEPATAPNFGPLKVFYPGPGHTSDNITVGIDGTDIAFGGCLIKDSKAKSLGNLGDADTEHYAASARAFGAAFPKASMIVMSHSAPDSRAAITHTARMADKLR
Chain of Metallo-beta-lactamase type 2 (Klebsiella pneumoniae) (C7C422 whole entry): as above

Structure (SMILES) | inhibition [1] [%] | Kd [2] [µM] | IC50 ([3]; read-out: IC50) [µM] | Ratio [4] | Ki [5] [µM] | IC50 ([3]; read-out: pIC50 (converted)) [µM]
O=C(O)CCCc1c[nH]c2ccccc12 | > 20 | 806 | 1950 | 1.5 |  | 
N#Cc1coc2ccccc2c1=O | > 20 | 181 | 480 | 1.5 | 186 | 

The remaining molecules from weak to strong by Kd [2], led by results:

inhibition [1] [%] | Kd [2] [µM] | IC50 ([3]; read-out: IC50) [µM] | Ratio [4] | Ki [5] [µM] | IC50 ([3]; read-out: pIC50 (converted)) [µM] | Structure (SMILES)
> 20 | 2100 | 3110 | 1.5 |  |  | CCCc1ccc(C(=O)CCC(=O)O)cc1
> 20 | 804 | 1240 | 1.5 |  | 1070 | O=C(O)CSc1ccnc2cc(Cl)ccc12
 | 11 |  |  |  |  | C[C@@H](O)[C@H]1C(=O)N2C(C(=O)O)=C(S[C@@H]3CN[C@H](C(=O)N(C)C)C3)[C@H](C)[C@H]12 [MEROPENEM]
